US20070134261A1, “Effectors of innate immunity” (priority 2001, published 2007)
Residues, ends and D or L forms follow the SMILES beside them.

Tested on: A549 human epithelial cell line
Assay: Polynucleotide array (Human Operon) of A549 cells incubated with E. coli O111:B4 LPS with or without peptide
Assay type: cell-based
Settings: 50 μg/ml, 4 h
Protocol: The A549 human epithelial cell line was maintained in DMEM (Gibco) supplemented with 10% fetal bovine serum (FBS, Medicorp). […] Total RNA was isolated using RNAqueous (Ambion, Austin, Tex.). […] DNA contamination was removed with DNA-free kit, Ambion).
A “homemade” program was used to remove background. The program calculates the bottom 10% intensity for each subgrid and subtracts this for each grid.
Peptide (50 μg/ml) and LPS (0.1 μg/ml) or LPS alone was incubated with the A549 cells for 4 h and the RNA was isolated. Five μg total RNA was used to make Cy3/Cy5 labeled cDNA probes and hybridized onto Human Operon arrays (PRHU04). The intensity of unstimulated cells is shown in the third column of Table 1. The “Ratio: LPS/control” column refers to the intensity of polynucleotide expression in LPS simulated cells divided by in the intensity of unstimulated cells. The “Ratio: LPS+ID 27/control” column refers to the intensity of polynucleotide expression in cells stimulated with LPS and peptide divided by unstimulated cells.
Peptide and LPS or LPS alone was incubated with the A549 cells for 4 h and the RNA was isolated. 5 μg total RNA was used to make Cy3/Cy5 labeled cDNA probes and hybridized onto Human Operon arrays (PRHU04). The intensity of unstimulated cells is shown in the third column of Table 2. The “Ratio: LPS/control” column refers to the intensity of polynucleotide expression in LPS-simulated cells divided by in the intensity of unstimulated cells. The other columns refer to the intensity of polynucleotide expression in cells stimulated with LPS and peptide divided by unstimulated cells.

[1] = AB007856 FEM-1-like death receptor binding protein

For `CSCC[C@H](NC(=O)[C@H](CO)NC(=O)[C@@H](NC(=O)[C@H](CCCCN)NC(=O)[C@H](Cc1ccccc1)NC(=O)[C@H](CS)NC(=O)[C@H](CO)NC(=O)[C@H](CCCNC(=N)N)NC(=O)[C@@H](N)CCCCN)C(C)C)C(=O)N[C@@H](CCCNC(=N)N)C(=O)NCC(=O)N[C@H](C(=O)N[C@@H](CO)C(=O)N[C@@H](CCCNC(=N)N)C(=O)N[C@@H](CCCNC(=N)N)C(=O)N[C@@H](CCCNC(=N)N)C(=O)N[C@@H](CS)C(=O)N[C@@H](CCCCN)C(=O)O)C(C)C` [SEQ ID NO: 27] (H-KRSCFKVSMRGVSRRRCK-OH; N-terminus and C-terminus assumed), the “Ratio: LPS + ID 27/control” value (AB007854 growth arrest-specific 7) was 2.2, the “Ratio: LPS + ID 27/control” value [1] was 0.6 and the “Ratio: LPS + ID/Ctrl” value [1] was 0.62. The “Ratio: LPS + ID/Ctrl” value (AB007896 putative L-type neutral amino acid transporter) was 1.82, the “Ratio: LPS + ID/Ctrl” value (AB010894 BAI1-associated protein) was 1.38 and the “Ratio: LPS + ID 27/control” value (AB014569 KIAA0669 gene product) was 0.2. The “Ratio: LPS + ID/Ctrl” value (AB023198 KIAA0981 protein) was 0.43, the “Ratio: LPS + ID/Ctrl” value (AB037722 Unknown) was 0.30 and the “Ratio: LPS + ID 27/control” value (AB040057 serine/threonine protein kinase MASK) was 15.8. The “Ratio: LPS + ID/Ctrl” value (AC004849 Unknown) was 0.07, the “Ratio: LPS + ID 27/control” value (AF035309 proteasome 26S subunit ATPase 5) was 1.3 and the “Ratio: LPS + ID/Ctrl” value (AF095687 brain and nasopharyngeal carcinoma susceptibility protein) was 0.48. For the same molecule, the “Ratio: LPS + ID 27/control” value (AF112219 esterase D/formylglutathione hydrolase) was 1.1, the “Ratio: LPS + ID 27/control” value (AF131838 Unknown) was 1.4 and the “Ratio: LPS + ID 27/control” value (AF151047 hypothetical protein) was 1.0. The “Ratio: LPS + ID 27/control” value (AF189009 ubiquilin 2) was 1.3, the “Ratio: LPS + ID 27/control” value (AJ001403 mucin 5 subtype B tracheobronchial) was 15.9 and the “Ratio: LPS + ID 27/control” value (AK000087 hypothetical protein) was 1.0. For the same molecule, the “Ratio: LPS + ID 27/control” value (AK000264 Unknown) was 0.6, the “Ratio: LPS + ID/Ctrl” value (AK000353 cytosolic ovarian carcinoma ag 1) was 1.02 and the “Ratio: LPS + ID 27/control” value (AK000353 cytosolic ovarian carcinoma antigen 1) was 1.0. The “Ratio: LPS + ID 27/control” value (AK000366 hypothetical protein) was 1.0, the “Ratio: LPS + ID 27/control” value (AK000562 hypothetical protein) was 0.6 and the “Ratio: LPS + ID 27/control” value (AK000869 hypothetical protein) was 2.3. For the same molecule, the “Ratio: LPS + ID/Ctrl” value (AK000869 hypothetical protein) was 2.34, the “Ratio: LPS + ID/Ctrl” value (AK001239 hypothetical protein) was 1.27 and the “Ratio: LPS + ID/Ctrl” value (AK001440 hypothetical protein) was 0.43. For the same molecule, the “Ratio: LPS + ID 27/control” value (AK001569 hypothetical protein) was 1.2, the “Ratio: LPS + ID 27/control” value (AK001589 hypothetical protein) was 1.3 and the “Ratio: LPS + ID/Ctrl” value (AK001589 hypothetical protein) was 1.26. The “Ratio: LPS + ID/Ctrl” value (AK001904 hypothetical protein) was 5.93, the “Ratio: LPS + ID 27/control” value (AL031983 Unknown) was 5.1 and the “Ratio: LPS + ID/Ctrl” value (AL031983 Unknown) was 5.06. The “Ratio: LPS + ID 27/control” value (AL050337 interferon gamma receptor 1) was 1.0, the “Ratio: LPS + ID 27/control” value (AL050348 Unknown) was 1.7 and the “Ratio: LPS + ID 27/control” value (AL096739 Unknown) was 0.5. The “Ratio: LPS + ID/Ctrl” value (AL122111 hypothetical protein) was 0.21, the “Ratio: LPS + ID 27/control” value (AL137376 Unknown) was 0.6 and the “Ratio: LPS + ID/Ctrl” value (AL137376 Unknown) was 0.64. For the same molecule, the “Ratio: LPS + ID 27/control” value (AL137614 hypothetical protein) was 1.0, the “Ratio: LPS + ID 27/control” value (D14043 CD164 antigen_sialomucin) was 1.0 and the “Ratio: LPS + ID 27/control” value (D14539 myeloid/lymphoid or mixed-lineage leukemia translocated to 1) was 3.1. For the same molecule, the “Ratio: LPS + ID 27/control” value (D42085 KIAA0095 gene product) was 1.2, the “Ratio: LPS + ID 27/control” value (D87451 ring finger protein 10) was 2.1 and the “Ratio: LPS + ID/Ctrl” value (D87451 ring finger protein) was 2.1. For the same molecule, the “Ratio: LPS + ID 27/control” value (J03925 integrin_alpha M) was 4.2, the “Ratio: LPS + ID 27/control” value (J04058 electron-transfer-flavoprotein alpha polypeptide) was 1.2 and the “Ratio: LPS + ID 27/control” value (J04513 fibroblast growth factor 2) was 0.9. The “Ratio: LPS + ID/Ctrl” value (J05068 transcobalamin 1) was 1.78, the “Ratio: LPS + ID 27/control” value (K02581 thymidine kinase 1 soluble) was 3.5 and the “Ratio: LPS + ID 27/control” value (L04510 ADP-ribosylation factor) was 1.4. The “Ratio: LPS + ID/Ctrl” value (L04510 ADP-ribosylation factor) was 1.4, the “Ratio: LPS + ID/Ctrl” value (L19185 thioredoxin-dependent peroxide reductase 1) was 0.18 and the “Ratio: LPS + ID 27/control” value (L25931 lamin B receptor) was 0.7. The “Ratio: LPS + ID 27/control” value (L42243 interferon receptor 2) was 5.2, the “Ratio: LPS + ID 27/control” value (M23379 RAS p21 protein activator) was 2.8 and the “Ratio: LPS + ID 27/control” value (M32315 tumor necrosis factor receptor superfamily member 1B) was 0.4. For the same molecule, the “Ratio: LPS + ID 27/control” value (M54915 pim-1 oncogene) was 0.6, the “Ratio: LPS + ID/Ctrl” value (M54915 pim-1 oncogene) was 0.63 and the “Ratio: LPS + ID 27/control” value (M57230 interleukin 6 signal transducer) was 1.0. The “Ratio: LPS + ID/Ctrl” value (M95678 phospholipase C beta 2) was 2.38, the “Ratio: LPS + ID/Ctrl” value (NM_001148 ankyrin 2_neuronal) was 0.82 and the “Ratio: LPS + ID 27/control” value (NM_001663 ADP-ribosylation factor 6) was 1.7. For the same molecule, the “Ratio: LPS + ID 27/control” value (NM_001940 dentatorubral-pallidoluysian atrophy) was 1.2, the “Ratio: LPS + ID 27/control” value (NM_002309 leukemia inhibitory factor) was 1.9 and the “Ratio: LPS + ID 27/control” value (NM_004862 LPS-induced TNF-alpha factor) was 1.1. The “Ratio: LPS + ID 27/control” value (NM_006092 caspase recruitment domain 4) was 0.5, the “Ratio: LPS + ID 27/control” value (NM_006325 RAN member RAS oncogene family) was 1.4 and the “Ratio: LPS + ID 27/control” value (NM_013241 FH1/FH2 domain-containing protein) was 0.6. The “Ratio: LPS + ID 27/control” value (NM_013400 replication initiation region protein) was 2.0, the “Ratio: LPS + ID 27/control” value (NM_016216 RNA lariat debranching enzyme) was 10.9 and the “Ratio: LPS + ID 27/control” value (NM_016237 anaphase-promoting complex subunit 5) was 0.9. The “Ratio: LPS + ID/Ctrl” value (NM_016382 NK cell activation inducing ligand NAIL) was 0.81, the “Ratio: LPS + ID 27/control” value (U19796 melanoma-associated antigen) was 0.6 and the “Ratio: LPS + ID 27/control” value (U26648 syntaxin 5A) was 1.4. The “Ratio: LPS + ID 27/control” value (U34252 aldehyde dehydrogenase 9) was 1.2, the “Ratio: LPS + ID 27/control” value (U43083 guanine cription factor 1) was 1.6 and the “Ratio: LPS + ID/Ctrl” value (U52522 partner of RAC1) was 1.35. For the same molecule, the “Ratio: LPS + ID 27/control” value (U52960 SRB7 homolog) was 0.8, the “Ratio: LPS + ID 27/control” value (U60205 sterol-C4-methyl oxidase-like) was 0.8 and the “Ratio: LPS + ID 27/control” value (U78027 galactosidase_alpha) was 1.1. The “Ratio: LPS + ID/Ctrl” value (U78166 Ric like) was 0.20, the “Ratio: LPS + ID 27/control” value (U78166 Ric-like expressed in neurons) was 0.2 and the “Ratio: LPS + ID 27/control” value (U91316 cytosolic acyl coenzyme A thioester hydrolase) was 1.4. The “Ratio: LPS + ID 27/control” value (U94831 transmembrane 9 superfamily member 1) was 1.5, the “Ratio: LPS + ID/Ctrl” value (X03066 MHC class II DO beta) was 4.90 and the “Ratio: LPS + ID/Ctrl” value (X06614 retinoic acid receptor_alpha) was 0.77. For the same molecule, the “Ratio: LPS + ID/Ctrl” value (X07173 inter-alpha inhibitor H2) was 0.44, the “Ratio: LPS + ID 27/control” value (X13334 CD14 antigen) was 1.1 and the “Ratio: LPS + ID/Ctrl” value (X16940 smooth muscle enteric actin γ2) was 3.24. For the same molecule, the “Ratio: LPS + ID 27/control” value (X51688 cyclin A2) was 1.0, the “Ratio: LPS + ID 27/control” value (X56777 zona pellucida glycoprotein 3A) was 1.4 and the “Ratio: LPS + ID 27/control” value (X70394 zinc finger protein 146) was 1.7. The “Ratio: LPS + ID 27/control” value (X76104 death-associated protein kinase 1) was 1.8, the “Ratio: LPS + ID 27/control” value (X76785 integration site for Epstein-Barr virus) was 1.9 and the “Ratio: LPS + ID 27/control” value (X80692 mitogen-activated protein kinase 6) was 1.3. The “Ratio: LPS + ID 27/control” value (X85750 monocyte to macrophage differentiation-associated) was 1.1, the “Ratio: LPS + ID 27/control” value (X92896 Unknown) was 1.5 and the “Ratio: LPS + ID 27/control” value (X92972 protein phosphatase 6 catalytic subunit) was 1.1. For the same molecule, the “Ratio: LPS + ID 27/control” value (Z99756 Unknown) was 14.0.
